# Test results taken from patent US20240083897A1, “GCN2 MODULATING COMPOUNDS AND USES THEREOF” (HiberCell, Inc., priority 2021, published 2024).
# Like-named read-outs stand apart in the source and are kept apart here.
# Target: GCN2 (Homo sapiens (Human), UniProt Q9P2K8)
# Experiment: TR-FRET biochemical assay for inhibition of GCN2
# [1] = GCN2 2 nM, 100 nM GFP-eIF2a, 150 μM ATP, TR-FRET
# Chain of GCN2 (Q9P2K8 whole entry): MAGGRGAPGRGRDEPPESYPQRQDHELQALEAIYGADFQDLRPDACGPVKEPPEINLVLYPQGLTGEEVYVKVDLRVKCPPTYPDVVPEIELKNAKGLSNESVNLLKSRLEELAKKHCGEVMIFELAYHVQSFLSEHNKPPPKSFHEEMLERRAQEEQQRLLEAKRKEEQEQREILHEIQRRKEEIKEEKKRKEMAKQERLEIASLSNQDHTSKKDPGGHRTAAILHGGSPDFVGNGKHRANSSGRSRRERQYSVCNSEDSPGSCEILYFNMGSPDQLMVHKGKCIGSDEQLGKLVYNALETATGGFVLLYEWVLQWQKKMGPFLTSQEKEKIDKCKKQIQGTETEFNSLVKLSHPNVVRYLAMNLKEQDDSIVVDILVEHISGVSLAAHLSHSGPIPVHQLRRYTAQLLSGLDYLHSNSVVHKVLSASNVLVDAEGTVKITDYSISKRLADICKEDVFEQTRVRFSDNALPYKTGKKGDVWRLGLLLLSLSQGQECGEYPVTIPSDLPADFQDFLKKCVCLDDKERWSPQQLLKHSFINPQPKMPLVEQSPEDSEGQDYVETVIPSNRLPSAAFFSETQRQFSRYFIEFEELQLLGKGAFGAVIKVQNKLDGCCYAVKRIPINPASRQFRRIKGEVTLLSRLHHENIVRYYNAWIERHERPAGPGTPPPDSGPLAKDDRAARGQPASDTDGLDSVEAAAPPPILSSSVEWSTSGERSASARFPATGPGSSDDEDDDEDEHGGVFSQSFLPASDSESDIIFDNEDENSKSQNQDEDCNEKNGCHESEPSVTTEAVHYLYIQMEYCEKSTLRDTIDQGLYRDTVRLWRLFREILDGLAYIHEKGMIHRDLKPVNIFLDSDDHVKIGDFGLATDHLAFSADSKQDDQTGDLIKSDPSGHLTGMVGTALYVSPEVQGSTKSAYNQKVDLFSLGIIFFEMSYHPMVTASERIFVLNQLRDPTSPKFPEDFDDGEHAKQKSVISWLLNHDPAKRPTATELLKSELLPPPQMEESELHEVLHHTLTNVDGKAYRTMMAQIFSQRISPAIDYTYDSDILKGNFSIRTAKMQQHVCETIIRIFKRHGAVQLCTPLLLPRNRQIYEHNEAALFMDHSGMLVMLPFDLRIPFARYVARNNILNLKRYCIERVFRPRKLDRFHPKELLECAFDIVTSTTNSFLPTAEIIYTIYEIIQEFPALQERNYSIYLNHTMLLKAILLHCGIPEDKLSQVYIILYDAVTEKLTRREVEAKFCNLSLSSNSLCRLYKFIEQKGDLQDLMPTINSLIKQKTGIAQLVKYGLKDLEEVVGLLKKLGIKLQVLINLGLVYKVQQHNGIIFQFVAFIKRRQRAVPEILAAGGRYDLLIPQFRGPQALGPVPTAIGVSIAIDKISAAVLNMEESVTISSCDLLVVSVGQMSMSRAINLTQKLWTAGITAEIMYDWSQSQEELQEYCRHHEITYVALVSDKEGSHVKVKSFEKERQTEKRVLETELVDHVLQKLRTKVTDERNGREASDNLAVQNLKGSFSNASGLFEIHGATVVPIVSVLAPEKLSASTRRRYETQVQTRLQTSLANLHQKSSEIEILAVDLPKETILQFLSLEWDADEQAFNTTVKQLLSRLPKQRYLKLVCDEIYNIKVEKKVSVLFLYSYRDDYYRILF
compound,measurement,setting,value
"COc1ncc(Cl)cc1S(=O)(=O)Nc1ccc(F)c(-c2ccc3c(-c4ncc(CO)[nH]4)ncn3c2)c1F [Compound 49, 5-chloro-N-(2,4-difluoro-3-[1-[4-(hydroxymethyl)-3H-imidazol-2-yl]imidazo[1,5-a]pyridin-6-yl]phenyl)-2-methoxypyridine-3-sulfonamide]",IC50,[1],< 50 nM
"Cc1nnc(-c2ncn3c2CC[C@H](c2c(F)ccc(NS(=O)(=O)c4cc(F)cnc4C)c2F)C3)[nH]1 [Compound 134-2, N-[2,4-difluoro-3-[(6R)-1-(5-methyl-4H-1,2,4-triazol-3-yl)-5H,6H,7H,8H-imidazo[1,5-a]pyridin-6-yl]phenyl]-5-fluoro-2-methylpyridine-3-sulfonamide]",IC50,[1],< 50 nM
"Cc1ncc(Cl)cc1S(=O)(=O)Nc1ccc(F)c(-c2ccc3c(-c4ccn(C)n4)ncn3c2)c1F [Compound 62, 5-chloro-N-[2,4-difluoro-3-[1-(1-methylpyrazol-3-yl)imidazo[1,5-a]pyridin-6-yl]phenyl]-2-methylpyridine-3-sulfonamide]",IC50,[1],< 50 nM
"Cc1nnc(-c2ncn3cc(-c4c(F)ccc(NS(=O)(=O)c5cc(Cl)cnc5C)c4F)ncc23)[nH]1 [Compound 133, 5-chloro-N-[2,4-difluoro-3-[1-(5-methyl-4H-1,2,4-triazol-3-yl)imidazo[1,5-a]pyrazin-6-yl]phenyl]-2-methylpyridine-3-sulfonamide]",IC50,[1],< 50 nM
"CNC(=O)c1ncn2c1CC[C@@H](c1c(F)ccc(NS(=O)(=O)c3cc(Cl)cnc3OC)c1F)C2 [Compound 27-2, (6S)-6-[3-(5-chloro-2-methoxypyridine-3-sulfonamido)-2,6-difluorophenyl]-N-methyl-5H,6H,7H,8H-imidazo[1,5-a]pyridine-1-carboxamide]",IC50,,50 to 500 nM
"COc1ncc(F)cc1S(=O)(=O)Nc1ccc(F)c(-c2ccc3c(-c4nc(Cl)c[nH]4)ncn3c2)c1F [Compound 45, N-[3-[1-(4-chloro-1H-imidazol-2-yl)imidazo[1,5-a]pyridin-6-yl]-2,4-difluorophenyl]-5-fluoro-2-methoxypyridine-3-sulfonamide]",IC50,[1],< 50 nM
"COc1ncc(Cl)cc1S(=O)(=O)Nc1ccc(F)c(-c2cn3cnc(C(=O)N[C@@H]4CCN(C)C4)c3cn2)c1F [Compound 173-1, (R)-6-(3-((5-chloro-2-methoxypyridine)-3-sulfonamido)-2,6-difluorophenyl)-N-(1-methylpyrrolidin-3-yl)imidazo[1,5-a]pyrazine-1-carboxamide]",IC50,,50 to 500 nM
"COc1ncc(F)cc1S(=O)(=O)Nc1ccc(F)c(-c2ccc3c(-c4nc(C)c(C)[nH]4)ncn3c2)c1F [Compound 144, N-(3-(1-(4,5-dimethyl-1H-imidazol-2-yl)imidazo[1,5-a]pyridin-6-yl)-2,4-difluorophenyl)-5-fluoro-2-methoxypyridine-3-sulfonamide]",IC50,[1],< 50 nM
"CNC(=O)c1ncn2c1CC[C@H](c1c(F)ccc(NS(=O)(=O)c3cc(Cl)cnc3OC)c1F)C2 [Compound 27-1, (6R)-6-[3-(5-chloro-2-methoxypyridine-3-sulfonamido)-2,6-difluorophenyl]-N-methyl-5H,6H,7H,8H-imidazo[1,5-a]pyridine-1-carboxamide]",IC50,,50 to 500 nM
"COc1ncc(Cl)cc1S(=O)(=O)Nc1ccc(F)c(-c2cn3cnc(C(=O)Nc4cnn(C)c4)c3cn2)c1F [Compound 162, 6-[3-(5-chloro-2-methoxypyridine-3-sulfonamido)-2,6-difluorophenyl]-N-(1-methylpyrazol-4-yl)imidazo[1,5-a]pyrazine-1-carboxamide]",IC50,[1],< 50 nM
"Cc1ncc(F)cc1S(=O)(=O)Nc1ccc(F)c(-c2ccc3c(-c4nc(C)c(C)[nH]4)ncn3c2)c1F [Compound 145, N-(3-(1-(4,5-dimethyl-1H-imidazol-2-yl)imidazo[1,5-a]pyridin-6-yl)-2,4-difluorophenyl)-5-fluoro-2-methylpyridine-3-sulfonamide]",IC50,[1],< 50 nM
"Cc1ncc(Cl)cc1S(=O)(=O)Nc1ccc(F)c(-c2ccc3c(-c4ccno4)ncn3c2)c1F [Compound 121, 5-chloro-N-[2,4-difluoro-3-[1-(1,2-oxazol-5-yl)imidazo[1,5-a]pyridin-6-yl]phenyl]-2-methylpyridine-3-sulfonamide]",IC50,[1],< 50 nM
"Cc1ncc(F)cc1S(=O)(=O)Nc1ccc(F)c(-c2ccc3c(-c4nc(C#N)c[nH]4)ncn3c2)c1F [Compound 44, N-[3-[1-(4-cyano-1H-imidazol-2-yl)imidazo[1,5-a]pyridin-6-yl]-2,4-difluorophenyl]-5-fluoro-2-methylpyridine-3-sulfonamide]",IC50,[1],< 50 nM
"COc1ncc(C#N)cc1S(=O)(=O)Nc1ccc(F)c(-c2ccn3c(-c4ncc[nH]4)ncc3c2F)c1F [Compound 42, 5-cyano-N-[2,4-difluoro-3-[8-fluoro-3-(1H-imidazol-2-yl)imidazo[1,5-a]pyridin-7-yl]phenyl]-2-methoxypyridine-3-sulfonamide]",IC50,[1],< 50 nM
"N#Cc1cc2c(c(S(=O)(=O)Nc3ccc(F)c(-c4ccc5c(-c6ncc[nH]6)ncn5c4)c3F)c1)CCC2O (stereo not drawn) [Compound 39, 6-cyano-N-[2,4-difluoro-3-[1-(1H-imidazol-2-yl)imidazo[1,5-a]pyridin-6-yl]phenyl]-1-hydroxy-2,3-dihydro-1H-indene-4-sulfonamide]",IC50,[1],< 50 nM
"COc1ncc(Cl)cc1S(=O)(=O)Nc1ccc(F)c(-c2cn3cnc(C(=O)NCC4CC4)c3cn2)c1F [Compound 166, 6-[3-(5-chloro-2-methoxypyridine-3-sulfonamido)-2,6-difluorophenyl]-N-(cyclopropylmethyl)imidazo[1,5-a]pyrazine-1-carboxamide]",IC50,[1],< 50 nM
"CNC(=O)c1ncn2cc(-c3c(F)ccc(NS(=O)(=O)c4cc(Cl)cnc4OC)c3F)c(OC)nc12 [Compound 17, 3-[3-(5-chloro-2-methoxypyridine-3-sulfonamido)-2,6-difluorophenyl]-2-methoxy-N-methylimidazo[1,5-a]pyrimidine-8-carboxamide]",IC50,,50 to 500 nM
"CNC(=O)c1ncn2cc(-c3c(F)ccc(NS(=O)(=O)c4cc(F)cnc4OC)c3F)ncc12 [Compound 90, 6-[2,6-difluoro-3-(5-fluoro-2-methoxypyridine-3-sulfonamido)phenyl]-N-methylimidazo[1,5-a]pyrazine-1-carboxamide]",IC50,,50 to 500 nM
"COc1ncc(Cl)cc1S(=O)(=O)Nc1ccc(F)c(-c2ccc3c(-n4cnnn4)ncn3c2)c1F [Compound 63, 5-chloro-N-[2,4-difluoro-3-[1-(1,2,3,4-tetrazol-1-yl)imidazo[1,5-a]pyridin-6-yl]phenyl]-2-methoxypyridine-3-sulfonamide]",IC50,[1],< 50 nM
"Cc1nnc(-c2ncn3cc(-c4c(F)ccc(NS(=O)(=O)c5cc(Cl)cnc5C)c4F)ccc23)[nH]1 [Compound 61, 5-chloro-N-[2,4-difluoro-3-[1-(5-methyl-4H-1,2,4-triazol-3-yl)imidazo[1,5-a]pyridin-6-yl]phenyl]-2-methylpyridine-3-sulfonamide]",IC50,[1],< 50 nM
"COc1ncc(Cl)cc1S(=O)(=O)Nc1ccc(F)c(-c2ccc3c(-c4nc5c([nH]4)CCCC5)ncn3c2)c1F [Compound 147, 5-chloro-N-(2,4-difluoro-3-(1-(4,5,6,7-tetrahydro-1H-benzo[d]imidazol-2-yl)imidazo[1,5-a]pyridin-6-yl)phenyl)-2-methoxypyridine-3-sulfonamide]",IC50,[1],< 50 nM
"COc1ncc(Cl)cc1S(=O)(=O)Nc1ccc(F)c(-c2cn3cnc(C(=O)NCC4CCOCC4)c3cn2)c1F [Compound 163, 6-[3-(5-chloro-2-methoxypyridine-3-sulfonamido)-2,6-difluorophenyl]-N-(oxan-4-ylmethyl)imidazo[1,5-a]pyrazine-1-carboxamide]",IC50,[1],< 50 nM
"Cc1cnc(-c2ncn3cc(-c4c(F)ccc(NS(=O)(=O)c5cc(Cl)cnc5C)c4F)ccc23)[nH]1 [Compound 56, 5-chloro-N-[2,4-difluoro-3-[1-(4-methyl-3H-imidazol-2-yl)imidazo[1,5-a]pyridine-6-yl]phenyl]-2-methylpyridine-3-sulfonamide]",IC50,[1],< 50 nM
"COc1ncc(Cl)cc1S(=O)(=O)Nc1ccc(F)c(-c2ccc3c(-n4nccn4)ncn3c2)c1F [Compound 55-2, 5-chloro-N-[2,4-difluoro-3-[1-(1,2,3-triazol-2-yl)imidazo[1,5-a]pyridin-6-yl]phenyl]-2-methoxypyridine-3-sulfonamide]",IC50,,500 to 1000 nM
"COc1ncc(F)cc1S(=O)(=O)Nc1ccc(F)c(-c2ccc3c(-n4cnnn4)ncn3c2)c1F [Compound 74, N-[2,4-difluoro-3-[1-(1,2,3,4-tetrazol-1-yl)imidazo[1,5-a]pyridin-6-yl]phenyl]-5-fluoro-2-methoxypyridine-3-sulfonamide]",IC50,[1],< 50 nM
"COc1ncc(Cl)cc1S(=O)(=O)Nc1ccc(F)c(-c2cn3cnc(C(=O)Nc4ccc(CN(C)C)cc4)c3cn2)c1F [Compound 181, 6-[3-(5-chloro-2-methoxypyridine-3-sulfonamido)-2,6-difluorophenyl]-N-[4-[(dimethylamino)methyl]phenyl]imidazo[1,5-a]pyrazine-1-carboxamide]",IC50,[1],< 50 nM
"COc1ncc(F)cc1S(=O)(=O)Nc1ccc(Cl)c(-c2cn3cnc(-c4ncc[nH]4)c3cn2)c1F [Compound 142, N-[4-chloro-2-fluoro-3-[1-(1H-imidazol-2-yl)imidazo[1,5-a]pyrazin-6-yl]phenyl]-5-fluoro-2-methoxypyridine-3-sulfonamide]",IC50,[1],< 50 nM
"COc1ncc(Cl)cc1S(=O)(=O)Nc1ccc(F)c(-c2cn3cnc(C(=O)NCCN4CCOCC4)c3cn2)c1F [Compound 175, 6-[3-(5-chloro-2-methoxypyridine-3-sulfonamido)-2,6-difluorophenyl]-N-[2-(morpholin-4-yl)ethyl]imidazo[1,5-a]pyrazine-1-carboxamide]",IC50,[1],< 50 nM
"COc1ncc(Cl)cc1S(=O)(=O)Nc1ccc(F)c(-c2ccc3c(-c4ncc[nH]4)ncn3c2)c1C#N [Compound 38, 5-chloro-N-[2-cyano-4-fluoro-3-[1-(1H-imidazol-2-yl)imidazo[1,5-a]pyridin-6-yl]phenyl]-2-methoxypyridine-3-sulfonamide]",IC50,[1],< 50 nM
"CNC(=O)c1ncn2cc(-c3c(F)ccc(NS(=O)(=O)c4cc(Cl)cnc4OCC(F)(F)F)c3F)ncc12 [Compound 182, 6-[3-[5-chloro-2-(2,2,2-trifluoroethoxy)pyridine-3-sulfonamido]-2,6-difluorophenyl]-N-methylimidazo[1,5-a]pyrazine-1-carboxamide]",IC50,,500 to 1000 nM
